From US11318157B2, “6-6 bicyclic aromatic ring substituted nucleoside analogues for use as PRMT5 inhibitors” (Janssen Pharmaceutica NV, priority 2015, dated 2022)
Like-named read-outs stand apart in the source and are kept apart here.

How the values were obtained:
PRMT5-MEP50 enzyme [1] = molecular target: T1, PRMT5-MEP50 enzyme (Homo sapiens, UniProt O14744); assay: In vitro assay 1a: high throughput mass spectrometer assay of SAH formation, 10 nM enzyme, 60 min; format: biochemical; details: averaged values, PRMT5-MEP50, 10 nM enzyme, read-out: pIC50 Assay 1a (converted)
T1 construct: One virus expresses full length human PRMT5 with Flag-tag at N-terminus; Flag (N); purchased Charles River (Argenta); host or cells: insect cells (Sf9), baculovirus co-infection
T1 sequence (O14744 whole entry): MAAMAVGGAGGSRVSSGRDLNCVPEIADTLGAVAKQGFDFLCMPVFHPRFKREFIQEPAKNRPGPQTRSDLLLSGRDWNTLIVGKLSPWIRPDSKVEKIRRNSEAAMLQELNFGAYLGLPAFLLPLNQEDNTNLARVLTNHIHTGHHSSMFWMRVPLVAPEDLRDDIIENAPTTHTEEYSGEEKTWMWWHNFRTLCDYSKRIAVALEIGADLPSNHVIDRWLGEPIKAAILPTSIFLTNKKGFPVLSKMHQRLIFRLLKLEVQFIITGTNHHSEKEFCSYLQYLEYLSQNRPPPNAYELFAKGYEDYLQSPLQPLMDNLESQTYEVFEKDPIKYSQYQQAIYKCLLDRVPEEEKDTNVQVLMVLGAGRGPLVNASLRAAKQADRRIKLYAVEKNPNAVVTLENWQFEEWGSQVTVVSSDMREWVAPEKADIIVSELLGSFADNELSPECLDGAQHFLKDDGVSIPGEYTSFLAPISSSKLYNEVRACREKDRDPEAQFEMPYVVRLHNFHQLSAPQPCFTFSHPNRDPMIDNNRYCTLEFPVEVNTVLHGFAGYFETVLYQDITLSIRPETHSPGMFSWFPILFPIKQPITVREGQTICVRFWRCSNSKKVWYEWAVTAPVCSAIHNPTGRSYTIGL
T1 sequence (Q9BQA1 whole entry partner): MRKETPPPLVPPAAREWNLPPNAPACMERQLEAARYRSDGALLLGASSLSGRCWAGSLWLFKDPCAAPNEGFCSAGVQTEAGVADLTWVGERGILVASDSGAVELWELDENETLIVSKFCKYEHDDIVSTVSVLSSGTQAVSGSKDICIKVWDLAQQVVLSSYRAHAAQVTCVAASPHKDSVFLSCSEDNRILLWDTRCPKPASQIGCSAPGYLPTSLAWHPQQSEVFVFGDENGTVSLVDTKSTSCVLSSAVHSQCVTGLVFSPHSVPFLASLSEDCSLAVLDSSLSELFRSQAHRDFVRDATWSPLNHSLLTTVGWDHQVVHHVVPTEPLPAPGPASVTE
How it was run: (§1)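 SAH product measured by RapidFire mass spectrometry after formic acid stop; IC50 from 11-point 1:2 dilutions, four-parameter fit. Reactions at 30 °C in 20 mM Tris pH 8.5 with 1 μM SAM, 0.3 μM H2A: assay 1a 10 nM PRMT5-MEP50, 60 min; assay 1b 1.25 nM, 120 min.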

PRMT5-MEP50 enzyme [2] = molecular target: T1, PRMT5-MEP50 enzyme; assay: In vitro assay 1b: high throughput mass spectrometer assay of SAH formation, 1.25 nM enzyme, 120 min; format: biochemical; details: averaged values, PRMT5-MEP50, 1.25 nM enzyme, 120 min; for IC50: read-out: pIC50 Assay 1b (converted)
How it was run: as §1

[3] = system: nuclear symmetric Arginine dimethylation in A549 cells; assay: PD assay (assay 2): inhibition of nuclear symmetric Arginine dimethylation (SYM10 immunohistochemistry), 48 h; format: cell-based; details: for IC50: Homo sapiens
How it was run: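 Cells seeded at 400/well overnight, then treated 48 h at 37 °C, final DMSO 0.2%. Fixed and stained with SYM10 antibody plus Alexa 488 secondary, Hoechst and CellMask, then imaged on Opera. Normalized to DMSO (high) and 10 μM reference compound (low); averaged pIC50 reported.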

[4] = A549, averaged values, PD assay, A549 cells, symmetric Arginine dimethylation, read-out: pIC50 Assay 2 (converted)

Row | SMILES | IC50 (PRMT5-MEP50 enzyme [1]) | IC50 (PRMT5-MEP50 enzyme [2]) | IC50 [3, 4] | pIC50 Assay 1b (PRMT5-MEP50 enzyme [2]) | pIC50 Assay 2 ([3]; averaged values, PD assay, A549 cells, symmetric Arginine dimethylation) | IC50 ([3]; A549, read-out: pIC50 Assay 2 (converted))
1 | CN(C[C@H]1O[C@@H](n2ccc3c(N)ncnc32)[C@H](O)[C@@H]1O)c1ccc2cc(Br)cnc2c1 [Compound 52] | 63.1 nM | 158 nM | 398 nM |  |  | 
2 | N#Cc1cnc2cc(OC[C@H]3O[C@@H](n4ccc5c(N)ncnc54)[C@H](O)[C@@H]3O)ccc2c1Cl [Compound 28] | > 10000 nM | 7940 nM | > 20000 nM |  |  | 
3 | Nc1ncnn2c([C@@H]3O[C@H](COc4ccc5cccnc5c4)[C@@H](O)[C@H]3O)ccc12 [Compound 60] | 251 nM | 398 nM | 1260 nM |  |  | 
4 | Cc1cnc2cc(CC[C@H]3C[C@@H](n4ccc5c(N)ncnc54)[C@H](O)[C@@H]3O)ccc2c1 [Compound 113] | 5.01 nM | 10 nM | 5.01 nM |  |  | 
5 | Nc1ncnc2c1ccn2[C@@H]1O[C@H](COc2ccc3cc(C(F)(F)F)cnc3c2)[C@@H](O)[C@H]1O [Compound 27] | 398 nM | 794 nM | ~1150 nM |  |  | 
6 | COc1ncnc2c1ccn2[C@@H]1O[C@H](CNc2ccc3cc(Br)cnc3c2)[C@@H](O)[C@H]1O [Compound 87] | 501 nM | 1000 nM | 1580 nM |  |  | 
7 | Cc1cn([C@@H]2O[C@H](COc3ccc4cccnc4c3)[C@@H](O)[C@H]2O)c2ncnc(N)c12 [Compound 82] | 200 nM | 501 nM | 1260 nM |  |  | 
8 | Nc1ncnc2c1ccn2[C@@H]1O[C@H](CCc2ccc3ccncc3c2)[C@@H](O)[C@H]1O [Compound 103] | 398 nM | 1260 nM | 7940 nM |  |  | 
9 | Cc1ccnc2cc(OC[C@H]3O[C@@H](n4ccc5c(N)ncnc54)[C@H](O)[C@@H]3O)ccc12 [Compound 32] | 39.8 nM | 126 nM | 501 nM |  |  | 
10 | Nc1nc(Cl)nc2c1ccn2[C@@H]1O[C@H](COc2ccc3cc(Cl)cnc3c2)[C@@H](O)[C@H]1O [Compound 4] | 63.1 nM | 200 nM | ~617 nM |  |  | 
11 | Nc1ncnc2c1ccn2[C@@H]1O[C@H](COc2cc3ncccc3cc2C(F)(F)F)[C@@H](O)[C@H]1O [Compound 38] | 200 nM | 398 nM | 794 nM |  |  | 
12 | COc1ncnc2c1ccn2[C@@H]1O[C@H](COc2ccc3cc(Br)cnc3c2)[C@@H](O)[C@H]1O [Compound 71] | 3160 nM | 2000 nM | 10000 nM |  |  | 
13 | CC(C)C(=O)O[C@@H]1[C@H](OC(=O)C(C)C)[C@@H](COc2ccc3cc(Br)cnc3c2)O[C@H]1n1ccc2c(N)ncnc21 [Compound 73] | > 10000 nM | > 100000 nM | 100 nM |  |  | 
14 | Nc1ncnc2c1ccn2[C@@H]1C[C@H](CCc2ccc3cc(Cl)cnc3c2)[C@@H](O)[C@H]1O [Compound 58] | 12.6 nM | 20 nM | 39.8 nM |  |  | 
15 | Nc1ncnn2c([C@@H]3O[C@H](CCc4ccc5cccnc5c4)[C@@H](O)[C@H]3O)ccc12 [Compound 62] | 631 nM | 794 nM | 1580 nM |  |  | 
16 | Nc1ncnc2c1ccn2[C@@H]1C[C@H](Cc2ccc3cccnc3c2)[C@@H](O)[C@H]1O [Compound 66] | 2000 nM | 5010 nM | > 20000 nM |  |  | 
17 | Nc1ncnc2c1ccn2[C@@H]1O[C@H](COc2cc3ncc(Br)cc3cc2F)[C@@H](O)[C@H]1O [Compound 106] | 63.1 nM | 158 nM | 398 nM |  |  | 
18 | Nc1ncnc2c1ccn2[C@@H]1O[C@H](COc2ccc3cccnc3n2)[C@@H](O)[C@H]1O [Compound 17] | 1000 nM | 1580 nM | 7940 nM |  |  | 
19 | Nc1ncnc2c1ccn2[C@@H]1C[C@H](CNc2ccc3cc(Br)cnc3c2)[C@@H](O)[C@H]1O [Compound 54a] | 7.94 nM |  |  | 7.8 | 7.4 | 
20 | Nc1ncnc2c1ccn2[C@@H]1O[C@H](COc2ccc3cc(F)cnc3c2)[C@@H](O)[C@H]1O [Compound 24] | 39.8 nM | 126 nM | 794 nM |  |  | 
21 | C=C(C)c1cnc2cc(OC[C@H]3O[C@@H](n4ccc5c(N)ncnc54)[C@H](O)[C@@H]3O)ccc2c1 [Compound 212] | 20 nM | 50.1 nM |  |  |  | 200 nM
22 | Nc1ncnc2c1ccn2[C@@H]1O[C@H](COc2cc3ncc(Br)cc3cc2C(F)(F)F)[C@@H](O)[C@H]1O [Compound 96] | 200 nM | 501 nM | 200 nM |  |  | 
23 | Nc1ccc2ccc(CC[C@H]3C[C@@H](n4ccc5c(Cl)ncnc54)[C@H](O)[C@@H]3O)cc2n1 [Compound 110] | 2 nM | 1.58 nM | 0.501 nM |  |  | 
24 | Nc1ncnc2c1ccn2[C@@H]1C[C@H](Cc2ccc3ccccc3c2)[C@@H](O)[C@H]1O [Compound 90] | 100 nM | 631 nM | > 10000 nM |  |  | 
25 | COc1ccc2ccc(OC[C@H]3O[C@@H](n4ccc5c(N)ncnc54)[C@H](O)[C@@H]3O)cc2n1 [Compound 19] | 1580 nM | 3160 nM | > 20000 nM |  |  | 

The next lines start with results.

Row | IC50 (PRMT5-MEP50 enzyme [1]) | IC50 (PRMT5-MEP50 enzyme [2]) | IC50 [3, 4] | pIC50 Assay 1b (PRMT5-MEP50 enzyme [2]) | pIC50 Assay 2 ([3]; averaged values, PD assay, A549 cells, symmetric Arginine dimethylation) | SMILES | IC50 ([3]; A549, read-out: pIC50 Assay 2 (converted))
26 | 3.16 nM | 25.1 nM | 50.1 nM |  |  | Cc1ncnc2c1ccn2[C@@H]1O[C@H](COc2ccc3ccc(NCc4ccc(Cl)cc4)nc3c2)[C@@H](O)[C@H]1O [Compound 205] | 
27 | 12.6 nM | 50.1 nM | 79.4 nM |  |  | CCc1cnc2cc(CC[C@H]3O[C@@H](n4ccc5c(N)ncnc54)[C@H](O)[C@@H]3O)ccc2c1 [Compound 122] | 
28 | 3.98 nM | 25.1 nM | 20 nM |  |  | CCc1cnc2cc(CC[C@H]3C[C@@H](n4ccc5c(N)ncnc54)[C@H](O)[C@@H]3O)ccc2c1 [Compound 125] | 
29 | 1 nM | 7.94 nM | 3.16 nM |  |  | Cc1ncnc2c1ccn2[C@@H]1C[C@H](CCc2ccc3ccc(NCc4ccc(Cl)cc4)nc3c2)[C@@H](O)[C@H]1O [Compound 193] | 
30 | 200 nM | 631 nM | 1260 nM |  |  | COc1ncnc2c1ccn2[C@@H]1O[C@H](CCc2ccc3ccc(NCC4CC4)nc3c2)[C@@H](O)[C@H]1O [Compound 191] | 
31 | 5.01 nM | 39.8 nM | 31.6 nM |  |  | Cc1cnc2cc(CC[C@H]3O[C@@H](n4ccc5c(N)ncnc54)[C@H](O)[C@@H]3O)ccc2c1 [Compound 123] | 
32 | 7.94 nM | 15.8 nM | 63.1 nM |  |  | CCc1cnc2cc(OC[C@H]3O[C@@H](n4ccc5c(N)ncnc54)[C@H](O)[C@@H]3O)ccc2c1 [Compound 213] | 
33 | 0.794 nM | 5.01 nM | 3.16 nM |  |  | Nc1ccc2ccc(CC[C@H]3O[C@@H](n4ccc5cncnc54)[C@H](O)[C@@H]3O)cc2n1 [Compound 167] | 
34 | 0.398 nM | 10 nM | < 1.17 nM |  |  | CNc1ccc2ccc(CC[C@H]3C[C@@H](n4ccc5cncnc54)[C@H](O)[C@@H]3O)cc2n1 [Compound 164] | 
35 | 0.794 nM | 15.8 nM | 5.01 nM |  |  | Nc1ncnc2c1ccn2[C@@H]1C[C@H](CCc2ccc3ccc(NCC(F)(F)F)nc3c2)[C@@H](O)[C@H]1O [Compound 151] | 
36 | 1.26 nM | 10 nM | 6.31 nM |  |  | Nc1ncnc2c1ccn2[C@@H]1O[C@H](CCc2ccc3ccc(NCC4CC4)nc3c2)[C@@H](O)[C@H]1O [Compound 139] | 
37 | 31.6 nM | 63.1 nM | ~174 nM |  |  | Nc1ncnc2c1ccn2[C@@H]1C[C@H](COc2ccc3cc(Cl)cnc3c2)[C@@H](O)[C@H]1O [Compound 222] | 
38 | 2 nM | 15.8 nM | 39.8 nM |  |  | O[C@@H]1[C@H](O)[C@@H](COc2ccc3ccc(NCc4ccc(Cl)cc4)nc3c2)O[C@H]1n1ccc2cncnc21 [Compound 173] | 
